# Experimental data as given in ChEMBL document CHEMBL1154658, “Novel macrocyclic inhibitors of hepatitis C NS3/4A protease featuring a 2-amino-1,3-thiazole as a P4 carbamate replacement” (J Med Chem, 2009).
# Key:
# Hepatitis C virus [1] = assay: Antiviral activity against HCV 1b infected in human Huh7 cells by bicistronic replicon RNA assay in presence of 50% normal human serum; type: functional, organism-based, Hepacivirus hominis; settings: genotype 1b, Huh-7
# [2] = Plasma clearance in Sprague-Dawley rat at 4 mg/kg, iv; type: ADME, organism-based; design: dose 4 mg/kg, route intravenous
# Hepatitis C virus [3] = assay: Antiviral activity against HCV 1b infected in human Huh7 cells by bicistronic replicon RNA assay in presence of 10% fetal bovine serum; type: functional, organism-based, Hepacivirus hominis; settings: genotype 1b, Huh-7
# [4] = Cmax in Sprague-Dawley rat at 4 mg/kg, iv; type: ADME, organism-based; design: dose 4 mg/kg, route intravenous; settings: in vivo
# [5] = Inhibition of HCV NS3/4A protease; design: species or system Hepacivirus hominis
# Hepatitis C virus [6] = assay: Inhibition of HCV 1b NS3/4A protease by time-resolved fluorescence assay; design: species or system Hepatitis C virus subtype 1b
# [7] = Oral bioavailability in Sprague-Dawley rat at 4 mg/kg; type: ADME, organism-based; settings: in vivo
# [8] = (§1) AUC (0 to 4 hrs) in Sprague-Dawley rat at 4 mg/kg, po; type: ADME, organism-based, Plasma; design: time < 4 hr, dose 4 mg/kg, route oral; settings: Sprague-Dawley, plasma
# [9] = (§2) Plasma clearance in Sprague-Dawley rat at 4 mg/kg, po; type: ADME, organism-based; design: dose 4 mg/kg, route oral; settings: Sprague-Dawley, plasma
# [10] = Bioavailability in Sprague-Dawley rat at 4 mg/kg, iv; type: ADME, organism-based; settings: in vivo
# [11] = Drug level in Sprague-Dawley rat liver at 4 mg/kg, po after 4 hrs; type: ADME, organism-based; design: dose 4 mg/kg, route oral; settings: read-out: Drug uptake
# [12] = AUC in Sprague-Dawley rat at 4 mg/kg, iv; type: ADME, organism-based; design: dose 4 mg/kg, route intravenous; settings: plasma
# [13] = Inhibition of HCV 3a NS3/4A protease; design: species or system Hepatitis C virus subtype 3a
# [14] = Inhibition of HCV 2a NS3/4A protease; design: species or system Hepatitis C virus subtype 2a
# [15] = Oral bioavailability in Sprague-Dawley rat at 5 mg/kg; type: ADME, organism-based; settings: in vivo
# Rattus norvegicus [16] = assay: AUC (0 to 4 hrs) in Sprague-Dawley rat at 5 mg/kg, po; type: ADME, organism-based, Plasma; design: time < 4 hr, dose 5 mg/kg, route oral; settings: in vivo, 4 h
# [17] = Drug level in Sprague-Dawley rat liver at 5 mg/kg, po after 4 hrs; type: ADME, organism-based; design: dose 5 mg/kg, route oral; settings: read-out: Drug uptake
# Rattus norvegicus [18] = assay: Plasma clearance in Sprague-Dawley rat at 5 mg/kg, po; type: ADME, organism-based; design: dose 5 mg/kg, route oral; settings: in vivo
# [19] = Selectivity for HCV NS3/4A protease over chymotrypsin
# [20] = Selectivity for HCV NS3/4A protease over trypsin
# Rattus norvegicus [21] = assay: as §1; type: ADME, organism-based, Plasma; design: time < 4 hr, dose 4 mg/kg, route oral; settings: in vivo, 4 h
# Rattus norvegicus [22] = assay: as §2; type: ADME, organism-based; design: dose 4 mg/kg, route oral; settings: in vivo
# [23] = Plasma clearance in Beagle dog at 2 mg/kg, iv; type: ADME, organism-based, Canis lupus familiaris; design: dose 2 mg/kg, route intravenous
# [24] = Cmax in Sprague-Dawley rat at 10 mg/kg, po; type: ADME, organism-based; design: dose 10 mg/kg, route oral; settings: in vivo
# [25] = Cmax in Sprague-Dawley rat at 30 mg/kg, po; type: ADME, organism-based; design: dose 30 mg/kg, route oral; settings: in vivo
# [26] = AUC in Beagle dog at 5 mg/kg, po; type: ADME, organism-based, Canis lupus familiaris; design: dose 5 mg/kg, route oral; settings: plasma
# [27] = Cmax in Beagle dog at 2 mg/kg, iv; type: ADME, organism-based, Canis lupus familiaris; design: dose 2 mg/kg, route intravenous; settings: in vivo
# [28] = AUC in Sprague-Dawley rat at 30 mg/kg, po; type: ADME, organism-based; design: dose 30 mg/kg, route oral; settings: plasma
# [29] = Cmax in Beagle dog at 5 mg/kg, po; type: ADME, organism-based, Canis lupus familiaris; design: dose 5 mg/kg, route oral; settings: in vivo
# [30] = Cmax in Sprague-Dawley rat at 20 mg/kg, po; type: ADME, organism-based; design: dose 20 mg/kg, route oral; settings: in vivo
# [31] = AUC in Sprague-Dawley rat at 20 mg/kg, po; type: ADME, organism-based; design: dose 20 mg/kg, route oral; settings: plasma
# [32] = Bioavailability in Beagle dog at 2 mg/kg, iv; type: ADME, organism-based, Canis lupus familiaris; settings: in vivo
# [33] = Drug level in Sprague-Dawley rat liver at 20 mg/kg, po after 24 hrs; type: ADME, organism-based; design: dose 20 mg/kg, route oral; settings: read-out: Drug uptake
# [34] = Drug level in Sprague-Dawley rat liver at 30 mg/kg, po after 24 hrs; type: ADME, organism-based; design: dose 30 mg/kg, route oral; settings: read-out: Drug uptake
# [35] = AUC in Sprague-Dawley rat at 5 mg/kg, po; type: ADME, organism-based; design: dose 5 mg/kg, route oral; settings: plasma
# [36] = Cmax in Sprague-Dawley rat at 5 mg/kg, po; type: ADME, organism-based; design: dose 5 mg/kg, route oral; settings: in vivo
# [37] = AUC in Beagle dog at 2 mg/kg, iv; type: ADME, organism-based, Canis lupus familiaris; design: dose 2 mg/kg, route intravenous; settings: plasma
# [38] = AUC in Sprague-Dawley rat at 10 mg/kg, po; type: ADME, organism-based; design: dose 10 mg/kg, route oral; settings: plasma
# [39] = AUC in Beagle dog at 10 mg/kg, po; type: ADME, organism-based, Canis lupus familiaris; design: dose 10 mg/kg, route oral; settings: plasma
# [40] = Cmax in Beagle dog at 10 mg/kg, po; type: ADME, organism-based, Canis lupus familiaris; design: dose 10 mg/kg, route oral; settings: in vivo
# [41] = Drug level in Sprague-Dawley rat liver at 5 mg/kg, po after 24 hrs; type: ADME, organism-based; design: dose 5 mg/kg, route oral; settings: read-out: Drug uptake
smiles,measurement,setting,value
C=C[C@@H]1C[C@]1(NC(=O)[C@@H]1C[C@@H]2CN1C(=O)[C@H]([C@@H](C)CC)Nc1nc(cs1)CCC/C=C/c1cccc3c1CN(C3)C(=O)O2)C(=O)NS(=O)(=O)C1CC1.O=C(O)C(F)(F)F,EC50,Hepatitis C virus [1],18 nM
same,EC90,Hepatitis C virus [1],40 nM
same,clearance,[2],17 mL/min/kg
same,EC50,Hepatitis C virus [3],2 nM
same,EC90,Hepatitis C virus [3],3 nM
same,Cmax,[4],400 nM
same,Ki,[5],4 nM
same,Ki,Hepatitis C virus [6],0.04 nM
same,bioavailability,[7],13%
same,AUC(0-t) at 4 h,[8],0.7 µM·h
same,CL/F,[9],17 mL/min/kg
same,bioavailability,[10],13%
same,concentration at 4 h,[11],350 nM
same,AUC,[12],0.7 µM·h
same,Ki,[13],45 nM
same,Ki,[14],0.4 nM
C=C[C@@H]1C[C@]1(NC(=O)[C@@H]1C[C@@H]2CN1C(=O)[C@H](C(C)C)Nc1nc(cs1)CCC/C=C/c1cccc3c1CN(C3)C(=O)O2)C(=O)NS(=O)(=O)C1CC1.O=C(O)C(F)(F)F,EC50,Hepatitis C virus [1],50 nM
same,EC50,Hepatitis C virus [3],5 nM
same,bioavailability,[15],8%
same,Ki,Hepatitis C virus [6],0.16 nM
same,AUC,Rattus norvegicus [16],0.4 µM·h
same,concentration at 4 h,[17],600 nM
same,CL,Rattus norvegicus [18],21 mL/min/kg
"CCC1C[C@]1(NC(=O)[C@@H]1C[C@@H]2CN1C(=O)[C@H](C1CCCCC1)Nc1nc(cs1)CCC/C=C/c1cccc3c1CN(C3)C(=O)O2)C(=O)NS(=O)(=O)C1CC1.O=C(O)C(F)(F)F (single isomer, unassigned)",EC50,Hepatitis C virus [1],50 nM
same,EC50,Hepatitis C virus [3],12 nM
same,Ki,Hepatitis C virus [6],0.16 nM
same,bioavailability,[7],< 0.01%
same,AUC(0-t) at 4 h,[8],< 0.01 µM·h
same,CL/F,[9],56 mL/min/kg
same,concentration at 4 h,[11],570 nM
C=C[C@@H]1C[C@]1(NC(=O)[C@@H]1C[C@@H]2CN1C(=O)[C@H]([C@@H](C)CC)Nc1nc(cs1)CCC/C=C/c1cccc3c1CN(C3)C(=O)O2)C(=O)NS(=O)(=O)C1CC1,fold change (FC),[19],> 15000
same,fold change (FC),[20],> 15000
C=C[C@@H]1C[C@]1(NC(=O)[C@@H]1C[C@@H]2CN1C(=O)[C@H](C(C)(C)C)Nc1nc(cs1)CCC/C=C/c1cccc3c1CN(C3)C(=O)O2)C(=O)NS(=O)(=O)C1CC1.O=C(O)C(F)(F)F,EC50,Hepatitis C virus [1],23 nM
same,EC50,Hepatitis C virus [3],3 nM
same,Ki,Hepatitis C virus [6],0.16 nM
same,bioavailability,[7],6%
same,AUC,Rattus norvegicus [21],0.06 µM·h
same,CL,Rattus norvegicus [22],85 mL/min/kg
same,concentration at 4 h,[11],130 nM
C=C[C@@H]1C[C@]1(NC(=O)[C@@H]1C[C@@H]2CN1C(=O)[C@H](C1CCCC1)Nc1nc(cs1)CCC/C=C/c1cccc3c1CN(C3)C(=O)O2)C(=O)NS(=O)(=O)C1CC1.O=C(O)C(F)(F)F,EC50,Hepatitis C virus [1],16 nM
same,EC90,Hepatitis C virus [1],34 nM
same,EC50,Hepatitis C virus [3],2 nM
same,EC90,Hepatitis C virus [3],3 nM
same,Ki,Hepatitis C virus [6],0.08 nM
same,bioavailability,[7],36%
same,AUC(0-t) at 4 h,[8],0.7 µM·h
same,CL/F,[9],25 mL/min/kg
same,concentration at 4 h,[11],180 nM
C=C[C@@H]1C[C@]1(NC(=O)[C@@H]1C[C@@H]2CN1C(=O)[C@H](C(C)(C)C)Nc1nc(cs1)CCCCCc1cccc3c1CN(C3)C(=O)O2)C(=O)NS(=O)(=O)C1CC1.O=C(O)C(F)(F)F,EC50,Hepatitis C virus [1],19 nM
same,EC50,Hepatitis C virus [3],4 nM
same,bioavailability,[15],5%
same,Ki,Hepatitis C virus [6],0.16 nM
same,AUC,Rattus norvegicus [16],0.06 µM·h
same,concentration at 4 h,[17],60 nM
same,CL,Rattus norvegicus [18],95 mL/min/kg
C=C[C@@H]1C[C@]1(NC(=O)[C@@H]1C[C@@H]2CN1C(=O)[C@H](C1CCCCC1)Nc1nc(cs1)CCC/C=C/c1cccc3c1CN(C3)C(=O)O2)C(=O)NS(=O)(=O)C1CC1.O=C(O)C(F)(F)F,EC50,Hepatitis C virus [1],16 nM
same,EC50,Hepatitis C virus [3],3 nM
same,Ki,Hepatitis C virus [6],0.04 nM
same,bioavailability,[7],8%
same,AUC,Rattus norvegicus [21],0.4 µM·h
same,CL,Rattus norvegicus [22],17 mL/min/kg
same,concentration at 4 h,[11],350 nM
C=C[C@@H]1C[C@]1(NC(=O)[C@@H]1C[C@@H]2CN1C(=O)[C@H]([C@@H](C)CC)Nc1nc(cs1)CCC/C=C/c1cccc3c1CN(C3)C(=O)O2)C(=O)[N-]S(=O)(=O)C1CC1.[K+],clearance,[23],38 mL/min/kg
same,Cmax,[24],1400 nM
same,Cmax,[25],8000 nM
same,AUC,[26],0.5 µM·h
same,Cmax,[27],60 nM
same,bioavailability,[15],26%
same,AUC,[28],21 µM·h
same,Cmax,[29],1160 nM
same,Cmax,[30],5900 nM
same,AUC,[31],13.3 µM·h
same,bioavailability,[32],17%
same,concentration at 24 h,[33],40 nM
same,concentration at 24 h,[34],60 nM
same,AUC,[35],1.7 µM·h
same,Cmax,[36],500 nM
same,AUC,[37],0.2 µM·h
same,AUC,[38],2.5 µM·h
same,AUC,[39],10 µM·h
same,Cmax,[40],4000 nM
same,concentration at 24 h,[41],10 nM
